# According to PMC10229426, “An optimized bioluminescent substrate for non-invasive imaging in the brain” (Nature Chemical Biology, 2023):
# Entries after “also recorded” stand apart in the source; their conditions may differ.
# How the values were obtained:
# Antares luciferase = target: T1, Antares luciferase (Oplophorus gracilirostris, UniProt Q9GV45, A31E/A60N/A81I/F95D/I117V/K70R/L54V/L99Q/M102K/N193R/P142E/Q151K/Q38R/Q45L/V71I/Y165I); experiment: Bioluminescence imaging of transgenic mice for substrate comparison (brain, Cre-driven Antares); assay type: in vivo, mouse
# T1 construct: expressed in transfected cells; host or cells: transgenic mice with CAG-LSL-Antares at the H11 locus, crossed to Cre driver lines (neurons or liver)
# Text: Transgenic reporter mice with LSL-CAG-luciferase (Antares, FLuc or AkaLuc) inserted at the H11 locus (H11P) were generated by φC31-mediated recombination in blastocysts[48] by the Stanford Transgenic, Knockout and Tumor Model Center. For substrate comparisons, 2- to 4-month-old transgenic mice doubly hemizygous for a Camk2a-cre (Jackson Laboratory, 005359), Vgat-IRES-cre (Jackson Laboratory), Vglut2-IRES-cre (Jackson Laboratory, 016963) or Alb-cre (Jackson Laboratory, 003574) driver and a CAG-LSL-Antares, CAG-LSL-AkaLuc or CAG-LSL-FLuc reporter were anesthetized by inhalation of isoflurane for 5 min. An electric shaver was used to remove scalp hair in Camk2a-cre, Vglut2-IRES-cre or Vgat-IRES-cre mice or abdominal hair in Alb-cre mice. Nair depilatory cream (Church and Dwight) was then applied to the shaved area for 1 min, and remaining hair was removed with a piece of sterile gauze. The area was then rinsed with DPBS and cleaned with 70% ethanol with a piece of sterile gauze.
# For mice expressing Antares, indicated amounts of Fz were dissolved in 480 µl of a PEG-300-based formulation consisting of 10% glycerol, 10% ethanol, 10% hydroxypropylcyclodextrin and 35% PEG-300 in water, or indicated amounts of lyophilized Fz analogs with P-407 vehicle were reconstituted in 150–500 µl of DPBS buffer. For mice expressing FLuc, indicated amounts of D-luciferin were dissolved in PBS. For mice expressing AkaLuc, 3 μmol (1.0 mg) of AkaLumine-HCl (Sigma-Aldrich) was dissolved in 150 μl of 0.9% NaCl. Substrates were then injected into the peritoneal cavity in the left lower quadrant, with the maximum injectable volume at 480 µl. Immediately after substrate injection, bioluminescent images were acquired in an Ami HT bioluminescence imaging system running Aura software version 3.1 or 4.0 (Spectral Instruments Imaging) for 15–30 min at intervals of 1 min. For comparing substrates at 1.3 µmol, the following imager settings were used: emission filter open, field of view of 25 cm, f-stop of 1.2, binning of 2 × 2 and exposure time of 2 s. For comparison with >1.3-µmol substrates, the following settings were used: emission filter open, field of view of 25 cm, f-stop of 1.2, binning of 1 × 1 and exposure time of 1 s. Pseudocolor images and intensity scale bars were generated with Aura software. Integrated luminescence was quantified using the Fiji version of the ImageJ program (NIH)[49], with further statistical analysis performed in GraphPad Prism (version 9.0.0).
# [1] = In vivo substrate pharmacokinetics (plasma and brain); parameters: species or system C57BL/6 mice; details: for concentration at 5 min: male, C57BL/6, mouse, brain, ip, 5 min after i.p. 1.3 µmol, wild-type mice
# Procedure: PK measurements were performed at Shanghai ChemPartner for Fz and compound 6 in 6- to 8-week-old overnight-fasted male C57BL/6 mice. Fz and compound 6 were formulated as clear solutions in 10% ethanol, 10% glycerol, 10% hydroxypropyl-β-cyclodextrin (Sigma-Aldrich), 35% PEG-300 and 35% water. Freshly prepared injectable doses (i.p., 20 mg per kg body weight for Fz and 21.6 mg per kg body weight for compound 6) were administered at 20 ml kg^–1. Each of the two measurement series consisted of four mice and two time points (series 1, predose and 0.083 h; series 2, 0.083 h and 0.167 h).
# At each time point, ~90 µl of blood was collected into a K2EDTA tube via facial vein bleeding. Plasma samples were put on ice and centrifuged to obtain plasma samples (2,000g for 5 min at 4 °C) within 15 min of collection. The plasma samples were stored at –70 °C until analysis. For analysis, 20 µl of plasma sample was added to 20 µl of stabilizer (80:20 (vol:vol) mixture of 200 mg ml^–1 EDTA and 100 mM L-ascorbic acid in water).
# At the terminal point of each series, a midline incision was made in the animal’s scalp, and the skin was retracted. The skull overlying the brain was removed. The whole brain was collected, rinsed with cold saline, dried on filtrate paper, weighed and snap-frozen by placing it into dry ice. No abnormal symptoms were observed during the studies. The brain samples were homogenized with 4 ml of stabilizer (80:20 (vol:vol) mixture of 200 mg ml^–1 EDTA and 100 mM L-ascorbic acid in water) per gram of tissue. The above samples (plasma or brain) were mixed with 120 µl of internal standard (Glipizide, 100 ng ml^–1) in acetonitrile. […] Compound concentrations were quantified using LC–MS/MS detection. […]
# PK parameters were determined by the non-compartmental model of the non-compartmental analysis tool, Pharsight Phoenix WinNonlin 8.2 software. […] When the number of detected time points after Tmax was less than 3, the terminal half-life and the area under the plasma concentration-time curve from zero to infinity were not calculated.
# [2] = Solubility in aqueous formulation with poloxamer-407 (P-407); assay type: physicochemical
# Procedure: Stock samples of solid formulated Fz analogs were prepared using the following protocol. First, P-407 (Pluronic F127) was placed into a screw-cap glass vial. The polymer was then heated to 75 °C in a water bath until melted. Fz analogs dissolved in ethanol were added to the hot polymer, mixing well with a thin spatula. Additional rinses of Fz analogs in ethanol were added to the hot polymer for quantitative transfer. The solvent was then removed under vacuum. This concentrated sample was diluted with water to make a dispensing mixture of 4–9 mM Fz analogs in water. Next, this aqueous stock was aliquoted into glass vials, frozen and lyophilized overnight to give a yellow cake. For i.p. injection into mice, DPBS (Corning, 21-031-CV) was added to the vial and rocked to create a clear solution.
# T1 sequence (Q9GV45 other isoform, or with tags, fused parts or gaps with the stated changes): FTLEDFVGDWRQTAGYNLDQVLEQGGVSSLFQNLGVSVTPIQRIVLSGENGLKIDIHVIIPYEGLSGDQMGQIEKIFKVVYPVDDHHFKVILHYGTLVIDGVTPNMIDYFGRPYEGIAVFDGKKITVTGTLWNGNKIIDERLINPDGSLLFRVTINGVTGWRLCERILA
structure (smiles),measurement,setting,value
"O=c1c(Cc2ccco2)nc2c(Cc3ccccc3)[nH]c(-c3cccc(F)c3F)cn1-2 [compound 6, cephalofurimazine]",brain brightness relative to Fz,"Antares luciferase; 1.3 µmol i.p., Antares driven by Vglut2-IRES-cre or Camk2a-cre, listed as CFz",at least 2.5 fold
same,peak light production in the brain relative to Fz,"Antares luciferase; 1.3 μmol i.p., CAG-LSL-Antares x Vgat-IRES-cre",significantly brighter
same,brain bioluminescence of 4.2 µmol dose relative to 1.3-μmol dose,"Antares luciferase; 4.2 µmol CFz with 20 mg P-407, i.p.",6.5 fold
same,peak brain signal relative to AkaLuc with AkaLumine,"Antares luciferase; Antares with 1.3 µmol CFz vs AkaLuc with 3.0 µmol AkaLumine, i.p., Vgat-cre or Camk2a-cre double hemizygotes, listed as CFz",matches AkaLuc–AkaLumine/TokeOni in brightness; also recorded: comparable peak signal
same,kinetics of brain signal relative to AkaLuc–AkaLumine,Antares luciferase; Antares–CFz,rise and decay more quickly
same,signal from the brain relative to D-luciferin with firefly luciferase,Antares luciferase; CFz paired with Antares,greater than 20 fold
same,bioavailability from plasma concentrations,"[1]; i.p. 1.3 µmol, plasma at 5 and 10 min, vs Fz",improved bioavailability after i.p. injection
same,concentration at 5 min,[1],1400 nM
same,solubilization of 4.2 µmol in P-407 formulation,[2]; 4.2 µmol,a small amount of CFz residue already remained with 20 mg of P-407 but not 30 mg
"O=c1c(Cc2ccco2)nc2c(Cc3ccccc3)[nH]c(-c3ccccc3)cn1-2 [Fz, furimazine, reference compound]",brain signal distribution,Antares luciferase; Antares driven by Camk2a-cre,expected forebrain-enriched signal
same,brain signal distribution,"Antares luciferase; i.p., CAG-LSL-Antares x Vgat-IRES-cre mice",signal from both the forebrain and hindbrain
same,concentration at 5 min,[1],1100 nM
same,solubility of 1.3 μmol in P-407 formulation,[2]; 1.3 μmol,not soluble in P-407
